Measurements as given in the supplement of paper PMC11451515.

Tested on: P12-Ichikawa
Assay: cell viability relative to DMSO control; higher = less cytotoxic
Conditions: 48 h
Method in brief: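 Viability was expressed as a per-plate percentage of DMSO wells, with cell-free wells as background. Leukemia cells (NOMO1 or SEM at 500 cells/well, P12-Ichikawa at 1000 cells/well) were adapted for at least four passages in each medium and seeded in 1536-well plates (5 μl). Library compounds in DMSO were pin-dosed over an 11-point threefold series from 47 μM to 0.79 nM, and CellTiter-Glo One luminescence was read after 48 h at 37°C.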

[1] = HPLM + 10% dialyzed FBS, 0.000781 µM
[2] = HPLM + 10% dialyzed FBS, 0.00234 µM
[3] = HPLM + 10% dialyzed FBS, 0.00702 µM
[4] = HPLM + 10% dialyzed FBS, 0.0211 µM
[5] = HPLM + 10% dialyzed FBS, 0.0632 µM
[6] = HPLM + 10% dialyzed FBS, 0.19 µM
[7] = HPLM + 10% dialyzed FBS, 0.569 µM
[8] = HPLM + 10% dialyzed FBS, 1.71 µM
[9] = HPLM + 10% dialyzed FBS, 5.12 µM
[10] = HPLM + 10% dialyzed FBS, 15.4 µM
[11] = HPLM + 10% dialyzed FBS, 46.1 µM
[12] = RPMI 5 mM glucose + 10% FBS, 0.000781 µM
[13] = RPMI 5 mM glucose + 10% FBS, 0.00234 µM
[14] = RPMI 5 mM glucose + 10% FBS, 0.00702 µM
[15] = RPMI 5 mM glucose + 10% FBS, 0.0211 µM
[16] = RPMI 5 mM glucose + 10% FBS, 0.0632 µM
[17] = RPMI 5 mM glucose + 10% FBS, 0.19 µM
[18] = RPMI 5 mM glucose + 10% FBS, 0.569 µM
[19] = RPMI 5 mM glucose + 10% FBS, 1.71 µM
[20] = RPMI 5 mM glucose + 10% FBS, 5.12 µM
[21] = RPMI 5 mM glucose + 10% FBS, 15.4 µM
[22] = RPMI 5 mM glucose + 10% FBS, 46.1 µM
[23] = RPMI 5 mM glucose + 10% dialyzed FBS, 0.000781 µM
[24] = RPMI 5 mM glucose + 10% dialyzed FBS, 0.00234 µM
[25] = RPMI 5 mM glucose + 10% dialyzed FBS, 0.00702 µM
[26] = RPMI 5 mM glucose + 10% dialyzed FBS, 0.0211 µM
[27] = RPMI 5 mM glucose + 10% dialyzed FBS, 0.0632 µM
[28] = RPMI 5 mM glucose + 10% dialyzed FBS, 0.19 µM
[29] = RPMI 5 mM glucose + 10% dialyzed FBS, 0.569 µM
[30] = RPMI 5 mM glucose + 10% dialyzed FBS, 1.71 µM
[31] = RPMI 5 mM glucose + 10% dialyzed FBS, 5.12 µM
[32] = RPMI 5 mM glucose + 10% dialyzed FBS, 15.4 µM
[33] = RPMI 5 mM glucose + 10% dialyzed FBS, 46.1 µM

Compound | cell viability [1] [%] | cell viability [2] [%] | cell viability [3] [%] | cell viability [4] [%] | cell viability [5] [%] | cell viability [6] [%] | cell viability [7] [%] | cell viability [8] [%] | cell viability [9] [%] | cell viability [10] [%] | cell viability [11] [%] | cell viability [12] [%] | cell viability [13] [%] | cell viability [14] [%] | cell viability [15] [%] | cell viability [16] [%] | cell viability [17] [%] | cell viability [18] [%] | cell viability [19] [%] | cell viability [20] [%] | cell viability [21] [%] | cell viability [22] [%] | cell viability [23] [%] | cell viability [24] [%] | cell viability [25] [%] | cell viability [26] [%] | cell viability [27] [%] | cell viability [28] [%] | cell viability [29] [%] | cell viability [30] [%] | cell viability [31] [%] | cell viability [32] [%] | cell viability [33] [%]
C/C=C(/C)C(=O)O[C@H]1C(C)=C2[C@H]([C@@H]1OC(=O)CCCCCCC)[C@@](C)(OC(C)=O)C[C@H](OC(=O)CCC)[C@@]1(O)[C@H]2OC(=O)[C@@]1(C)O | 103 | 114 | 111 | 109 | 104 | 71 | 38.5 | 51.5 | 67 | 69.8 | 75.2 | 120 | 129 | 107 | 125 | 96.8 | 66.4 | 22.1 | 23.8 | 46 | 48.2 | 42.4 | 109 | 121 | 123 | 112 | 95.7 | 52.6 | 13.3 | 8.27 | 16.7 | 20.3 | 22.7
OC1=C(O)C2=C(\C=C/C(=O)O2)C=C1 | 99 | 104 | 114 | 107 | 101 | 119 | 114 | 117 | 114 | 107 | 81.1 | 109 | 115 | 118 | 110 | 99.4 | 113 | 124 | 116 | 112 | 109 | 68 | 95.1 | 109 | 104 | 104 | 101 | 97.5 | 98 | 107 | 105 | 103 | 58.3
Cc1c(CCOc2ccc(C(=O)O)cc2)c2cc(Cl)ccc2n1C(c1ccccc1)c1ccccc1 | 123 | 110 | 112 | 117 | 113 | 113 | 107 | 105 | 101 | 83.8 | 71.8 | 109 | 112 | 111 | 111 | 108 | 108 | 112 | 101 | 106 | 103 | 86.1 | 109 | 111 | 116 | 116 | 107 | 110 | 104 | 113 | 99.3 | 103 | 88.8
